From patent US6808909B2, “Thermostable phytase with 2.1 Å . . . crystal structure” (Korea Research Institute of Bioscience and Biotechnology, priority 2000, dated 2004)

Molecular target: T1, phytase derived from B. amyloliquefaciens DS-11 (Bacillus sp., UniProt O66037)
T1 construct: made in house; host or cells: Bacillus subtilis DB104/pJPK
Assay: Activity of the phytase on phytate and myo-inositol monophosphate substrates
Assay type: biochemical
Details: 2 mM substrate, 37° C. for 15 min, 20 mM Tris/HCl (pH7.0) buffer; relative to phytate = 100
Method: The activities of the phytase derived from B. amyloliquefaciens DS11 were measured on its 2 mM substrates of myo-inositol, hexaphosphate, mio-inositol 1-monophosphate, mio-inositol 2-monophosphate, myo-inositol 4-monophosphate, after incubating at 37° C. for 15 min in a 20 mM Tris/HCl (pH7.0) buffer.

T1 sequence (O66037 31-383): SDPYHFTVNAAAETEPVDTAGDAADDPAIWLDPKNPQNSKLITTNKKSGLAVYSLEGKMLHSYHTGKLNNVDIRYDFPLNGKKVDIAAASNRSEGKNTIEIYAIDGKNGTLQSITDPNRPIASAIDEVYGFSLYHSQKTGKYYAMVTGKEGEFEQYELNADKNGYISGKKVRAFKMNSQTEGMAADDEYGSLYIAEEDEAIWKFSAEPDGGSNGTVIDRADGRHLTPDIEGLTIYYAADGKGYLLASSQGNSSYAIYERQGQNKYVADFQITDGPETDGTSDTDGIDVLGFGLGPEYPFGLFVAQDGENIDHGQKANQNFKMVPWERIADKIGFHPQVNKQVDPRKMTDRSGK

Row | Structure (SMILES) | Relative Enzyme Activity (%)
1 | O=P(O)(O)OC1[C@@H](O)[C@@H](O)C(O)[C@H](O)[C@H]1O (stereo partly shown) [4′-monophosphoinositol, myo-inositol 4-monophosphate] | 40
2 | O=P(O)(O)OC1[C@@H](O)[C@H](O)C(O)[C@H](O)[C@H]1O (stereo partly shown) [2′-monophosphoinositol, mio-inositol 2-monophosphate] | 28
3 | O=P(O)(O)O[C@H]1[C@H](OP(=O)(O)O)[C@@H](OP(=O)(O)O)[C@H](OP(=O)(O)O)[C@@H](OP(=O)(O)O)[C@H]1OP(=O)(O)O [Phytate, myo-inositol, hexaphosphate] | 100
4 | O=P(O)(O)OC1[C@H](O)[C@H](O)C(O)[C@H](O)[C@H]1O (stereo partly shown) [1′-monophosphoinositol, mio-inositol 1-monophosphate] | 27
